# Experimental data reported in patent US9464071B2 (priority 2010, dated 2016).
# Values joined by “and” are separate entries in the source; they are usually repeats but may differ in a detail not shown here. Equal values may be shown once.
row,melting point,SMILES
1,152.97 °C and 153 °C,COc1cc(OC)cc(N(CCO)c2ccc3ncc(-c4cnn(C)c4)nc3c2)c1
2,80 °C,COc1cc(OCCO)cc(N(CC2CC2)c2ccc3ncc(-c4cn[nH]c4)nc3c2)c1
3,158 to 160 °C and 159 °C,COc1cc(OC)cc(N(CC2CC2)c2ccc3ncc(-c4cn[nH]c4)nc3c2)c1
4,130 °C,COc1cc(OC)cc(N(CC2CC2)c2ccc3ncc(-c4cnn(CCN)c4)nc3c2)c1
5,110 °C,COc1cc(OC)cc(N(CC2CC2)c2ccc3ncc(-c4cnn(CC(C)C)c4)nc3c2)c1
6,170.82 °C,CNC(=O)Cn1cc(-c2cnc3ccc(N(CC4CC4)c4cc(OC)cc(OC)c4)cc3n2)cn1
7,204.29 °C,COc1cc(OC)cc(N(CC2OCCO2)c2ccc3ncc(-c4cnn(C)c4)nc3c2)c1
8,215.88 °C,COc1cc(OC)cc(N(CCN2C(=O)c3ccccc3C2=O)c2ccc3ncc(-c4cnn(C)c4)nc3c2)c1
9,142 °C,COc1cc(F)cc(N(CC2CC2)c2ccc3ncc(-c4cnn(C)c4)nc3c2)c1
10,123.16 °C,COc1cc(OC)cc(N(CC2CC2)c2ccc3ncc(-c4cnn(CCCN5CCOCC5)c4)nc3c2)c1
11,146.13 °C,COc1cc(OC)cc(N(CC2CC2)c2ccc3ncc(-c4cnn(CCN5CCN(CCO)CC5)c4)nc3c2)c1
12,104.64 °C,COCCNC(=O)C(C)(C)n1cc(-c2cnc3ccc(N(CC4CC4)c4cc(OC)cc(OC)c4)cc3n2)cn1
13,142 °C,CNCCN(c1cc(OC)cc(OCCO)c1)c1ccc2ncc(-c3cnn(C)c3)nc2c1
14,193.25 °C and 192 °C,COc1cc(OC)cc(N(CC#Cc2nccn2C)c2ccc3ncc(-c4cnn(C)c4)nc3c2)c1
15,139.15 °C,CNC1CCN(CCCN(c2cc(OC)cc(OC)c2)c2ccc3ncc(-c4cnn(C)c4)nc3c2)C1 (stereo not shown)
16,160.14 °C and 164 °C,COc1cc(OC)cc(N(c2ccc3ncc(-c4cnn(C)c4)nc3c2)C2COC2)c1
17,165 °C,COc1cc(OCCO)cc(N(CCN)c2ccc3ncc(-c4cnn(C)c4)nc3c2)c1
18,80 °C,COc1cc(OC)cc(N(CCNC2CC(C)(C)NC(C)(C)C2)c2ccc3ncc(-c4cnn(C)c4)nc3c2)c1
19,191.73 °C,COc1ccc(OC)c(N(CCO)c2ccc3ncc(-c4cnn(C)c4)nc3c2)c1
20,80 °C,COc1cc(F)cc(N(CCO)c2ccc3ncc(-c4cn[nH]c4)nc3c2)c1

row,melting point,SMILES
1,168.25 °C,COc1cc(OC)cc(N(CCCO)c2ccc3ncc(-c4cnn(C5CCCCO5)c4)nc3c2)c1 (stereo not shown)
2,159.08 °C and 159 °C,COc1cc(OC)cc(N(CC2CC2)c2ccc3ncc(-c4cnn(CC(C)(C)O)c4)nc3c2)c1
3,200 °C,COc1cc(OC)cc(N(CC2CC2)c2ccc3ncc(-c4cnn(C5CCN(S(C)(=O)=O)CC5)c4)nc3c2)c1
4,194 °C,COc1cc(F)cc(N(CCNC(C)C)c2ccc3ncc(-c4cn[nH]c4)nc3c2)c1
5,90 °C,COc1cc(OC)cc(N(CC2CC2)c2ccc3ncc(-c4cnn(C5CCNCC5)c4)nc3c2)c1
6,149 °C,[2H]C([2H])([2H])Oc1cc(OC([2H])([2H])[2H])cc(N(c2ccc3ncc(-c4cnn(C)c4)nc3c2)C([2H])([2H])C([2H])([2H])O)c1
7,221 °C and 220.78 °C,COc1cc(OC)cc(N(CC2CC2)c2ccc3ncc(-c4cnn(CCC5CCNCC5)c4)nc3c2)c1
8,157 °C and 156 °C,COc1cc(OC)cc(N(CC#CCO)c2ccc3ncc(-c4cnn(C)c4)nc3c2)c1
9,106 °C,C#CCN(c1cc(OC)cc(OC)c1)c1ccc2ncc(-c3cnn(CC4CCOCC4)c3)nc2c1
10,80 °C,COc1cc(OC)cc(N(c2ccc3ncc(-c4cnn(C)c4)nc3c2)S(=O)(=O)N(C)C)c1
11,122 °C,CCOP(=O)(CCN(c1cc(OC)cc(OC)c1)c1ccc2ncc(-c3cnn(C)c3)nc2c1)OCC
12,187 °C,COc1cc(OC)cc(N(CC2OCCN(C(C)C)C2=O)c2ccc3ncc(-c4cnn(C)c4)nc3c2)c1 (stereo not shown)
13,88 °C,COc1cc(OC)cc(N(CC2CN(C(C)C)CCO2)c2ccc3ncc(-c4cnn(C)c4)nc3c2)c1 (stereo not shown)
14,177 °C,CONCCN(c1cc(OC)cc(OC)c1)c1ccc2ncc(-c3cnn(C)c3)nc2c1
15,148 °C,COc1cc(OC)cc(N(CCNC(C)C)c2ccc3ncc(-c4cnn(CCS(C)(=O)=O)c4)nc3c2)c1
16,167 °C,COc1cc(OC)cc(N(CC2CNCCN2)c2ccc3ncc(-c4cnn(C)c4)nc3c2)c1 (stereo not shown)
17,175 °C,COc1cc(OC)cc(N(CC#Cc2nccc(OC)n2)c2ccc3ncc(-c4cnn(C)c4)nc3c2)c1
18,264 °C and 260.14 °C,COc1cc(OC)cc(N(CC(N)=O)c2ccc3ncc(-c4cnn(C)c4)nc3c2)c1
19,160 to 162 °C,CNC(=O)OCCN(c1cc(OC)cc(OC)c1)c1ccc2ncc(-c3cnn(C)c3)nc2c1
20,127 °C,[2H]C([2H])([2H])Oc1cc(OC([2H])([2H])[2H])cc(N(CCCNCC(F)(F)F)c2ccc3ncc(-c4cnn(C)c4)nc3c2)c1

row,melting point,SMILES
1,167 °C,COc1cc(OC)cc(N(CC#Cc2nccs2)c2ccc3ncc(-c4cnn(C)c4)nc3c2)c1
2,85 °C,COc1cccc(C#CCN(c2cc(OC)cc(OC)c2)c2ccc3ncc(-c4cnn(C)c4)nc3c2)c1
3,62 °C,COc1cc(OC)cc(N(CCO)c2ccc3ncc(-c4cnn(C)c4CCCO)nc3c2)c1
4,148 °C,COc1cc(OC)cc(N(CC#Cc2ccnc(N)n2)c2ccc3ncc(-c4cnn(C)c4)nc3c2)c1
5,155 °C,COc1cc(OC)cc(N(CC#Cc2ccc(C)cn2)c2ccc3ncc(-c4cnn(C)c4)nc3c2)c1
6,167 °C,COc1cc(OC)cc(N(CC#CC2(O)CCNCC2)c2ccc3ncc(-c4cnn(C)c4)nc3c2)c1
7,126 °C,COc1cc(OC)cc(N(CCN(C)C(C)C)c2ccc3ncc(-c4cnn(C)c4)nc3c2)c1
8,158.57 °C,COc1cc(OC)cc(N(CC2CO2)c2ccc3ncc(-c4cnn(C)c4)nc3c2)c1 (stereo not shown)
9,220 °C,COc1cc(OC)cc(N(CC#Cc2cc(Cl)nc(N)n2)c2ccc3ncc(-c4cnn(C)c4)nc3c2)c1
10,119 °C,COc1cc(OC)cc(N(CC#Cc2ncccc2OC)c2ccc3ncc(-c4cnn(C(C)C)c4)nc3c2)c1
11,180 to 182 °C and 181 °C,CNCCN(c1cc(OC)cc(OC)c1)c1ccc2ncc(-c3cnn(C)c3)nc2c1
12,212 °C,COc1cc(OC)cc(N(CC(=O)Nc2cc(C)ccn2)c2ccc3ncc(-c4cnn(C)c4)nc3c2)c1
13,202 °C,COc1cccnc1C#CCN(c1ccc2ncc(-c3cnn(C)c3)nc2c1)c1c(F)c(OC)cc(OC)c1F
14,241 °C,COc1cc(OC)cc(N(CC(=O)Nc2nccc(OC)n2)c2ccc3ncc(-c4cnn(C)c4)nc3c2)c1
15,196 °C and 195.95 °C,COc1cc(OC)cc(N(CCc2nnn[nH]2)c2ccc3ncc(-c4cnn(C)c4)nc3c2)c1
16,125 °C,COc1cc(OC)cc(N(CCCN2CCC(F)C2)c2ccc3ncc(-c4cnn(C)c4)nc3c2)c1 (stereo not shown)
17,88 °C,CCOC(=O)Cn1cc(CN(c2cc(OC)cc(OC)c2)c2ccc3ncc(-c4cnn(C)c4)nc3c2)nn1
18,123 °C and 123.5 °C,COc1cc(OC)cc(N(CC2CCN(CC(F)(F)F)CC2)c2ccc3ncc(-c4cnn(C)c4)nc3c2)c1
